pEC50: −log10 of the molar value. Where two headings read alike, the source gives them in different places.

6 compounds from US11622946B2, “Uses of a carotenoid in the treatment or prevention of stress induced conditions” (GREENALTECH, S.L., priority 2016, dated 2023) can be followed below.

Series [1] concerns the target T1, human Gluocorticoid receptor (GR) (Homo sapiens, UniProt P04150).
T1 construct: expressed in transfected cells; host or cells: GeneBLAzer UAS-bla HEK 293T
T1 sequence (P04150 524-758 limits assumed): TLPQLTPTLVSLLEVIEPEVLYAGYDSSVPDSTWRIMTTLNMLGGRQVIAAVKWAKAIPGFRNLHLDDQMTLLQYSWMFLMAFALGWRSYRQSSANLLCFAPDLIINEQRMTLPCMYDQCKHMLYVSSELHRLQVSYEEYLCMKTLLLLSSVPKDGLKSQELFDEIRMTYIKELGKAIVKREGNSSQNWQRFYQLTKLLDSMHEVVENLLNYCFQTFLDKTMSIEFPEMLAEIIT
Description: GR antagonist assay (GeneBLAzer beta-lactamase reporter, GR-UAS-bla HEK 293T cells, dexamethasone as agonist). The class given is cell-based. The following applies: for antagonist effect on GR (in words) / GR inhibition: against dexamethasone; for GR inhibition: at 10 μM. How it is done:
An antagonist assay for GR was performed.
These cells stably express a beta-lactamase reporter gene under the transcriptional control of an upstream activator sequence (UAS). When an agonist binds to the LBD of the GAL4 (DBD)-GR (LBD) fusion protein, the protein binds to the UAS, resulting in expression of beta-lactamase.
32 μL of cell suspension is added to the wells and pre-incubated at 37° C./5% CO2 in a humidified incubator with compounds and control antagonist titration for 30 minutes. 4 μL of 10× control agonist. Dexamethasone at the pre-determined EC80 concentration is added to wells containing the control antagonist or compounds. The plate is incubated for 16-24 hours at 37° C./5% CO2 in a humidified incubator. 8 μL of 1 μM Substrate Loading Solution is added to each well and the plate is incubated for 2 hours at room temperature. The plate is read on a fluorescence plate reader.

The target in series [2] is T2, progesterone receptors (PR) (Homo sapiens, UniProt P06401).
T2 sequence (P06401 679-933 limits assumed): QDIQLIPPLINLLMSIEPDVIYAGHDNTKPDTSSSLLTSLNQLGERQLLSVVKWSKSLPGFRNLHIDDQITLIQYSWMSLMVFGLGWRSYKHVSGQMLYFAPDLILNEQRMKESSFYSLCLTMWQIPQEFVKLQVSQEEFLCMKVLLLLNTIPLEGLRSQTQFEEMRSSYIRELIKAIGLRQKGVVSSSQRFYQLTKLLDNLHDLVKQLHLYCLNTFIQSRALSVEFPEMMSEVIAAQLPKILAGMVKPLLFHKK
Description: PR antagonist assay (GeneBLAzer beta-lactamase reporter, UAS-bla HEK 293T cells, R5020 as agonist). The class given is cell-based. The conditions noted are these: for antagonist action on PR (in words): against promegestone (R5020). How it is done: An antagonist assay for PR was performed. In this assay, an engineered cell line (UAS-bla HEK 293T) expressing PR is used to test the action of two xanthophylls. The detection method consists in GeneBLAzer® technology, based on mammalian-optimized Beta-lactamase reporter gene (bla) combined with a FRET-enabled substrate.
In FIG. 7, neoxanthin and fucoxanthin were tested against the agonist promegestone (R5020).

In series [3] the test system is p53 in HaCat keratinocytes. Kind of series: p53 quantification by ELISA after hydrocortisone (Human Total p53 DuoSet IC ELISA). The class given is cell-based. The conditions noted are these: compounds at 0.1 and 1 μM, 1 h before 10 μM hydrocortisone, 2 h. How it is done:
HaCat keratinocytes were cultured in DMEM medium supplemented with 10% FCS. […] Assays were performed with cells between 80% and 90% of confluence and with a cell viability above 90% (tested by trypan blue staining). 20000 cells per experimental condition were seeded in 24 well plates with 1 mL of medium for 24h. Culture medium was substituted for not supplemented DMEM and after a 24 hour incubation, compounds were added at 0.1 and 1 μM to assay wells. […] Cells were lysed in 100 μL of lysis buffer and 5 μg of total cell extract were used for the quantitative ELISA. Optical density was measured at 450 nm and background was subtracted.

In series [4] the test system is HaCat cell line. Description: Hydrocortisone-induced DNA damage assay (HCS DNA Damage kit, phosphorylated H2AX). The following applies: compounds at 0.1 μM, 1 h before 10 μM hydrocortisone. It is filed as cell-based, human. How it is done: HaCat cell line, a spontaneously transformed aneuploid immortal keratinocyte cell line from adult human skin was used. Keratinocytes were cultured in DMEM medium supplemented with 10% FCS. […] Assays were performed with cells between 80% and 90% of confluence and with a cell viability above 90% (tested by trypan blue staining). 20000 cells per experimental condition were seeded in 24 well plates with 1 mL of medium for 24 h. Culture medium was substituted for not supplemented DMEM and after a 24 hour incubation, compounds were added at 0.1 μM to assay wells. […] Plate was incubated for 30 min before the DNA extraction. DNA damage was quantified using the HCS DNA Damage kit (ThermoFisher®). “The HCS DNA Damage kit simultaneously and quantitatively measures two important cell-health parameters: DNA damage and cytotoxicity. DNA damage is detected using an antibody against phosphorylated H2AX (Ser139) which is induced in response to double-strand break (DSB) formation”. Plate was read using Fluoroscan at 355-460 nm for Hoechst (cell number) and 485-538 nm for the secondary antibody (DNA damage). Background is subtracted and relativized with values obtained from Hoechst staining in order to obtain the value of DNA damage relative to the cell count of each well. Results were normalized using the basal values.

In series [5] the test system is triple negative breast adenocarcinoma cell line MDA-MB-231. Description: Cytotoxicity by the MTT method. The following applies: read-out: EC50 (cytotoxic effect), MDA-MB-231, 72 h. On the technique in general: Formazan colour is commonly taken as a measure of viable cells.
Description: For that purpose the cytotoxic effects (EC50) of fucoxanthin (063-06691, Wako Chemicals) alone and combined with paclitaxel (T1912, Sigma-Aldrich) on the triple negative breast adenocarcinoma cell line MDA-MB-231 (ECACC: 92020424) were assessed.
In a first setup, MDA-MB-231 cells were seeded in 96 well plates with 100 μL of DMEM +10% FBS and incubated at 37° C., 5% CO2 and 90% humidity. After 24 hours, with a confluence and viability of between 80 and 90% as assessed by trypan blue test, cells were treated with serial dilutions (1:3) in DMEM+10% FBS of fucoxanthin solubilized in DMSO ranging from 100 μM to 15.2 nM.
In a second setup, MDA-MB-231 cells were seeded in 96 well plates with 100 μL of DMEM +10% FBS and incubated at 37° C., 5% CO2 and 90% humidity. After 24 hours, with a confluence and viability of between 80 and 90% as assessed by trypan blue test, cells were treated with serial dilutions (1:3) of paclitaxel in DMEM+10% FBS ranging from 1 μM to 0.15 nM or with both the same concentrations of paclitaxel plus a fixed subtoxic concentration of fucoxanthin (1 μM) solubilized in DMSO (100 μM).

Turning to `CC1=C(/C=C/C(C)=C/C=C/C(C)=C/C=C/C=C(C)/C=C/C=C(C)/C=C/C2=C(C)C(=O)[C@@H](O)CC2(C)C)C(C)(C)C[C@H](O)C1=O` [astaxanthin], in series [1], the “antagonist effect on GR (in words)” value is listed as “neither compounds exercise an antagonist effect on GR”.
Turning to fucoxanthin, in series [2], the “antagonist action on PR (in words)” value was “None of them showed an important antagonist action”. In series [2] (at the highest concentration tested, against R5020), the PR inhibition is recorded as 30%. Moreover, the “p53 expression in the presence of hydrocortisone (in words)” value in series [3] was “increase p53 expression”. The “protection of DNA from hydrocortisone-induced damage (in words)” value in series [4] is recorded as “capable of protecting DNA”. Moreover, in series [1], the “antagonist effect on GR (in words)” value is on record as “parcial antagonist” and the GR inhibition is given as 50%. For the same compound, in series [1] (against dexamethasone (FIG. 5)), the “concentration from which compound acts as GR antagonist” value is recorded as 30 nM. Besides, the negative-log EC50 (pEC50) (usually the negative decadic logarithm of the EC50, by convention in mol/L) in series [5] (MTT, fucoxanthin alone) is 5.13.
Turning to `CC(=O)O[C@H]1C(=O)[C@@]2(C)[C@H]([C@H](OC(=O)c3ccccc3)[C@]3(O)C[C@H](OC(=O)[C@H](O)[C@@H](NC(=O)c4ccccc4)c4ccccc4)C(C)=C1C3(C)C)[C@]1(OC(C)=O)CO[C@@H]1C[C@@H]2O` [paclitaxel, reference compound], the pEC50 in series [5] (Homo sapiens) is 8.36.
`CC(=C/C=C/C(C)=C/C=C/C=C(C)/C=C/C=C(\C)C=C=C1C(C)(C)C[C@H](O)C[C@@]1(C)O)/C=C/[C@@]12O[C@]1(C)C[C@@H](O)CC2(C)C` [neoxanthin]: in series [2], the “antagonist action on PR (in words)” value is reported as “None of them showed an important antagonist action”. Moreover, in series [3], the “p53 expression in the presence of hydrocortisone (in words)” value is “increase p53 expression”. The “protection of DNA from hydrocortisone-induced damage (in words)” value in series [4] is reported as “capable of protecting DNA”. Besides, in series [1], the “antagonist effect on GR (in words)” value was “total antagonist” and the GR inhibition result is listed as “above 85%”.
With `C\C(C=C=C1C(C)(C)C[C@H](O)C[C@@]1(C)O)=C/C=C/C(C)=C/C=C/C=C(C)/C=C/C=C(\C)C(=O)/C=C1\C(C)(C)C[C@H](O)C[C@@]1(C)O` [iso-fucoxanthinol], the “maximum GR inhibition” value in series [1] (at 10 mM (so in the source), against dexamethasone (FIG. 6)) is listed as 80%.
On to `CC1=C(/C=C/C(C)=C/C=C/C(C)=C/C=C/C=C(C)/C=C/C=C(C)/C=C/C2=C(C)CCCC2(C)C)C(C)(C)CCC1` [beta-carotene], for which the “antagonist effect on GR (in words)” value in series [1] is on record as “neither compounds exercise an antagonist effect on GR”.
